Reference: patent publication EP0326331B1, “Substituted quinolines and cinnolines” (Dow AgroSciences LLC, priority 1988, dated 1989)

Key:
Format in all cases: in vivo
[1] = tested on: Pseudoperonospora cubensis (downy mildew); experiment: Test 1 greenhouse foliar spray screen, downy mildew on squash; settings: disease control rating, foliar spray on squash, 400 ppm (+++ at 100 ppm)
[2] = tested on: corn rootworm; experiment: Mite/insect screen, CRW; settings: percent mortality, read-out: CRW RESULTS %; for mortality at 12 ppm: CRW RATE 12.00 PPM; for mortality at 24 ppm: CRW RATE 24.00 PPM
Procedure: (§1) The compounds of Examples 1-295 were tested for miticidal and insecticidal activity in the following mite/insect screen.
(§2) Each test compound was formulated by dissolving the compound in acetone/alcohol (50:50) mixture containing 23 g of "TOXIMUL R" (sulfonate/nonionic emulsifier blend) and 13 g of "TOXIMUL S" (sulfonate/nonionic emulsifier blend) per liter. These mixtures were then diluted with water to give the indicated concentrations.
(§3) After standard exposure periods, percent mortality was evaluated. […]

[3] = tested on: Botrytis cinerea (gray mold); experiment: Test 1 greenhouse foliar spray screen, gray mold on grape berries; settings: disease control rating, spray on grape berries, 400 ppm (+++ at 100 ppm)
[4] = tested on: Pyricularia oryzae (rice blast); experiment: whole plant or invertebrate; settings: disease control rating, foliar spray on rice, 400 ppm (+++ at 100 ppm)
[5] = tested on: Puccinia recondita tritici (leaf rust); experiment: Test 1 greenhouse foliar spray screen, leaf rust on wheat; settings: disease control rating, foliar spray on wheat, 400 ppm (+++ at 100 ppm)
[6] = tested on: Erysiphe graminis tritici (powdery mildew); experiment: Test 1 greenhouse foliar spray screen, powdery mildew on wheat; settings: disease control rating, foliar spray on wheat, 400 ppm (+++ at 100 ppm)
[7] = tested on: Twospotted spider mites (Tetranychus urticae Koch); experiment: Mite/insect screen, SM; settings: for mortality at 200 ppm / mortality at 400 ppm: Tetranychus urticae, percent mortality, SAW, read-out: SM RESULTS %; for mortality at 200 ppm: SM & MA RATE 200 PPM; for mortality at 400 ppm: SM & MA RATE 400 PPM
Procedure: as §1, §2
(§4) Other plants in the same treatment pot were left uninfested. The leaves were then sprayed with 5 ml of test solution using a DeVilbiss atomizing sprayer at 10 psi. Both surfaces of the leaves were covered until runoff, and then allowed to dry for one hour. Two uninfested leaves were then excised and placed into a Petri dish containing southern armyworm (Spodopetra eridania Cramer).
as §3

[8] = tested on: melon aphids (Aphis gossypii Glover); experiment: Mite/insect screen, MA; settings: Aphis gossypii, percent mortality, SAW, read-out: MA RESULTS %; for mortality at 200 ppm: SM & MA RATE 200 PPM; for mortality at 400 ppm: SM & MA RATE 400 PPM
Procedure: as §1, §2, §4, §3

[9] = tested on: southern armyworm (Spodopetra eridania Cramer); experiment: Mite/insect screen, SAW; settings: Spodoptera eridania, percent mortality, SAW, read-out: SAW RESULTS %; for mortality at 200 ppm: SM & MA RATE 200 PPM; for mortality at 400 ppm: SM & MA RATE 400 PPM
Procedure: as §1, §2, §4, §3

Structure (SMILES): CC(=O)N(CCc1ccc(-c2ccccc2)cc1)c1ccnc2c(F)cccc12 [Example 130, N-[2-(1,1'-biphenyl)-4-ylethyl]-N-(8-fluoro-4-quinolinyl)acetamide]
- DOWN MDEW [1]: - (0-19% control at 400 ppm)
- mortality at 12 ppm [2]: 0%
- mortality at 24 ppm [2]: 0%
- GRAY MOLD [3]: - (0-19% control at 400 ppm)
- RICE BLAST [4]: - (0-19% control at 400 ppm)
- LEAF RUST [5]: - (0-19% control at 400 ppm)
- POWD MDEW [6]: - (0-19% control at 400 ppm)
- mortality at 200 ppm [7]: 0%
- mortality at 400 ppm [7]: 0%
- mortality at 200 ppm [8]: 0%
- mortality at 400 ppm [8]: 0%
- mortality at 200 ppm [9]: 0%
- mortality at 400 ppm [9]: 0%

Structure (SMILES): CC(=O)N(CCc1c(C)c(C)c(C)c(C)c1C)c1ccnc2c(F)cccc12 [Example 131, N-[2-(pentamethylphenyl)ethyl]-N-(8-fluoro-4-quinolinyl)acetamide]
- DOWN MDEW [1]: + (20-89% control at 400 ppm)
- mortality at 12 ppm [2]: 0%
- mortality at 24 ppm [2]: 0%
- GRAY MOLD [3]: - (0-19% control at 400 ppm)
- RICE BLAST [4]: - (0-19% control at 400 ppm)
- LEAF RUST [5]: - (0-19% control at 400 ppm)
- POWD MDEW [6]: - (0-19% control at 400 ppm)
- mortality at 200 ppm [7]: 0%
- mortality at 400 ppm [7]: 0%
- mortality at 200 ppm [8]: 0%
- mortality at 400 ppm [8]: 0%
- mortality at 200 ppm [9]: 0%
- mortality at 400 ppm [9]: 0%

Structure (SMILES): CC(=O)N(CCc1ccccc1Cl)c1ccnc2c(Cl)cccc12 [Example 132, N-[2-(2-chlorophenyl)ethyl]-N-(8-chloro-4-quinolinyl)acetamide]
- DOWN MDEW [1]: - (0-19% control at 400 ppm)
- mortality at 12 ppm [2]: 0%
- mortality at 24 ppm [2]: 0%
- GRAY MOLD [3]: - (0-19% control at 400 ppm)
- RICE BLAST [4]: - (0-19% control at 400 ppm)
- LEAF RUST [5]: - (0-19% control at 400 ppm)
- POWD MDEW [6]: - (0-19% control at 400 ppm)
- mortality at 200 ppm [7]: 0%
- mortality at 400 ppm [7]: 0%
- mortality at 200 ppm [8]: 0%
- mortality at 400 ppm [8]: 0%
- mortality at 200 ppm [9]: 0%
- mortality at 400 ppm [9]: 0%

Structure (SMILES): COc1ccc(CCNc2ccnc3c(C)c(C)ccc23)cc1 [Example 133, N-[2-(4-methoxyphenyl)ethyl]-7,8-dimethyl-4-quinolinamine]
- DOWN MDEW [1]: + (20-89% control at 400 ppm)
- mortality at 12 ppm [2]: 0%
- mortality at 24 ppm [2]: 0%
- GRAY MOLD [3]: - (0-19% control at 400 ppm)
- RICE BLAST [4]: + (20-89% control at 400 ppm)
- LEAF RUST [5]: + (20-89% control at 400 ppm)
- POWD MDEW [6]: - (0-19% control at 400 ppm)
- mortality at 200 ppm [7]: 0%
- mortality at 400 ppm [7]: 0%
- mortality at 200 ppm [8]: 0%
- mortality at 400 ppm [8]: 0%
- mortality at 200 ppm [9]: 0%
- mortality at 400 ppm [9]: 0%

Structure (SMILES): Clc1ccc2c(NCCCc3ccc(-c4ccccc4)cc3)ccnc2c1 [Example 134, 7-chloro-N-[3-(1,1'-biphenyl)-4-ylpropyl]-4-quinolinamine]
- DOWN MDEW [1]: +++ (90-100% control at 100 ppm)
- mortality at 24 ppm [2]: 0%
- GRAY MOLD [3]: - (0-19% control at 400 ppm)
- RICE BLAST [4]: ++ (90-100% control at 400 ppm)
- LEAF RUST [5]: + (20-89% control at 400 ppm)
- POWD MDEW [6]: + (20-89% control at 400 ppm)
- mortality at 400 ppm [7]: 0%
- mortality at 400 ppm [8]: 0%
- mortality at 400 ppm [9]: 0%

Structure (SMILES): Fc1cccc2c(NCCCc3ccc(-c4ccccc4)cc3)ccnc12 [Example 137, N-[3-(1,1'-biphenyl)-4-ylpropyl]-8-fluoro-4-quinolinamine]
- DOWN MDEW [1]: +++ (90-100% control at 100 ppm)
- mortality at 24 ppm [2]: 0%
- GRAY MOLD [3]: - (0-19% control at 400 ppm)
- RICE BLAST [4]: +++ (90-100% control at 100 ppm)
- LEAF RUST [5]: + (20-89% control at 400 ppm)
- POWD MDEW [6]: + (20-89% control at 400 ppm)
- mortality at 400 ppm [7]: 80%
- activity as miticides ([7]; summary statement in the description): particularly excellent activity
- mortality at 400 ppm [8]: 80%
- mortality at 400 ppm [9]: 100%

Structure (SMILES): CC(CCc1ccccc1)Nc1ccnc2c(F)cccc12 (centres unmarked) [Example 138, 8-fluoro-N-(1-methyl-3-phenylpropyl)-4-quinolinamine]
- DOWN MDEW [1]: +++ (90-100% control at 100 ppm)
- mortality at 24 ppm [2]: 0%
- GRAY MOLD [3]: - (0-19% control at 400 ppm)
- RICE BLAST [4]: + (20-89% control at 400 ppm)
- LEAF RUST [5]: + (20-89% control at 400 ppm)
- POWD MDEW [6]: - (0-19% control at 400 ppm)
- mortality at 400 ppm [7]: 0%
- mortality at 400 ppm [8]: 0%
- mortality at 400 ppm [9]: 0%

Structure (SMILES): CC(=O)N(CCCCc1ccc(Cl)cc1)c1ccnc2c(F)cccc12 [Example 141, N-[4-(4-chlorophenyl)butyl]-N-(8-fluoro-4-quinolinyl)acetamide]
- DOWN MDEW [1]: + (20-89% control at 400 ppm)
- mortality at 12 ppm [2]: 0%
- mortality at 24 ppm [2]: 0%
- GRAY MOLD [3]: - (0-19% control at 400 ppm)
- RICE BLAST [4]: ++ (90-100% control at 400 ppm)
- LEAF RUST [5]: + (20-89% control at 400 ppm)
- POWD MDEW [6]: - (0-19% control at 400 ppm)
- mortality at 200 ppm [7]: 0%
- mortality at 400 ppm [7]: 0%
- mortality at 200 ppm [8]: 0%
- mortality at 400 ppm [8]: 0%
- mortality at 200 ppm [9]: 0%
- mortality at 400 ppm [9]: 0%

Structure (SMILES): Cc1ccc(C)c2c(NCCC3=CCCCC3)ccnc12 [Example 142, N-[2-(1-cyclohexenyl)ethyl]-5,8-dimethyl-4-quinolinamine]
- DOWN MDEW [1]: +++ (90-100% control at 100 ppm)
- mortality at 12 ppm [2]: 0%
- mortality at 24 ppm [2]: 0%
- GRAY MOLD [3]: - (0-19% control at 400 ppm)
- RICE BLAST [4]: ++ (90-100% control at 400 ppm)
- LEAF RUST [5]: ++ (90-100% control at 400 ppm)
- POWD MDEW [6]: - (0-19% control at 400 ppm)
- mortality at 200 ppm [7]: 0%
- mortality at 400 ppm [7]: 0%
- mortality at 200 ppm [8]: 0%
- mortality at 400 ppm [8]: 0%
- mortality at 200 ppm [9]: 0%
- mortality at 400 ppm [9]: 0%

Structure (SMILES): CC(=O)N(CCC1=CCCCC1)c1ccnc2ccc(F)cc12 [Example 146, N-[2-(1-cyclohexenyl)ethyl]-N-(6-fluoro-4-quinolinyl)acetamide]
- DOWN MDEW [1]: + (20-89% control at 400 ppm)
- mortality at 12 ppm [2]: 0%
- mortality at 24 ppm [2]: 0%
- GRAY MOLD [3]: - (0-19% control at 400 ppm)
- RICE BLAST [4]: - (0-19% control at 400 ppm)
- LEAF RUST [5]: - (0-19% control at 400 ppm)
- POWD MDEW [6]: - (0-19% control at 400 ppm)
- mortality at 200 ppm [7]: 0%
- mortality at 400 ppm [7]: 0%
- mortality at 200 ppm [8]: 0%
- mortality at 400 ppm [8]: 0%
- mortality at 200 ppm [9]: 0%
- mortality at 400 ppm [9]: 0%

Structure (SMILES): OC(CNc1ccnc2c(F)cccc12)c1ccc2ccccc2c1 (stereo not drawn) [Example 157, α-[[(8-fluoro-4-quinolinyl)amino]methyl]-2-naphthalenemethanol]
- DOWN MDEW [1]: +++ (90-100% control at 100 ppm)
- mortality at 24 ppm [2]: 0%
- GRAY MOLD [3]: - (0-19% control at 400 ppm)
- RICE BLAST [4]: ++ (90-100% control at 400 ppm)
- LEAF RUST [5]: ++ (90-100% control at 400 ppm)
- POWD MDEW [6]: - (0-19% control at 400 ppm)
- mortality at 400 ppm [7]: 80%
- mortality at 400 ppm [8]: 0%
- mortality at 400 ppm [9]: 100%
